Test system: SD rats (type 2 diabetes model)
Assay: model for rat urine glucose excretion (glucose-oxidase method)
Format: in vivo
Details: type 2 diabetes model SD rats, 6 mg/kg intragastrically, glucose 2 g/kg at 0.5 h, urine collected 0-12 h
Experimental: The health SD rats are injected intraperitoneally with multiple low doses of streptozotocin for modeling (type 2 diabetes model) after feeding with high-fat and high-sucrose diet, and the content of blood glucose is measured before and after modeling. After the modeling successful, the rats for modeling are randomly divided (8 rats/group) into one blank group (administering the same volume of 0.5% CMC sodium solution) and several groups for compounds to be tested (6 mg/kg) according to the content of 24-hour urine glucose and the body weight. Rats in each group are fasted for 16 hours before experiment. The experimental rats are administered intragastrically with glucose (2 g/kg) at 0.5 h after intragastrical administration with compounds to be tested. The urine is collected at the time-period of 0-12 h after administration, and the urine glucose values are measured at each time-period by glucose-oxidase method.
The inhibiting activity of the cocrystal of I-D1-6 and L-proline on SGLT2 is measured by the model for rat urine glucose excretion.
The health SD rats are injected intraperitoneally with multiple low doses of streptozotocin for modeling (type 2 diabetes model) after feeding with high-fat and high-sucrose diet for one month, and the content of blood glucose is measured before and after modeling. After the modeling successful, the rats for modeling are randomly divided (8 rats/group) into one blank group (administering the same volume of 0.5% CMC sodium solution) and groups of tested compound (6 mg/kg) according to the content of 24-hour urine glucose and the body weight. Rats in each group are fasted for 16 hours before experiment. The experimental rats are administered intragastrically with the glucose (2 g/kg) at 0.5 h after intragastrical administration with the cocrystal of I-D1-6 and L-proline prepared in Example 138. The urine is collected at the time-period of 0-12 h after administration, and the urine glucose values are measured at each time-period by glucose-oxidase method.

| SMILES | Urine glucose excretion (mg/200 g body weight of the rat) |
| --- | --- |
| OCC1CC(O)C(O)C(c2ccc(Cl)c(Cc3ccc(O[C@H]4CCOC4)cc3)c2)O1 (stereo partly shown) [drawing 244] | 723 mg/200 g body weight of the rat |
| OCC1OC(c2ccc(F)c(Cc3cc4ccccc4s3)c2)C(O)C(O)C1O (stereo not shown) [drawing 195] | 621 mg/200 g body weight of the rat |
| CCOc1ccc(Cc2cc([C@]34OC[C@](C)(O3)[C@@H](O)[C@H](O)[C@H]4O)ccc2Cl)cc1 [drawing 250] | 665 mg/200 g body weight of the rat |
| COc1ccc(Cc2cc(C)cc(C3OC(C)C(O)C(O)C3O)c2)cc1F (stereo not shown) | 539 mg/200 g body weight of the rat |
| CCOc1ccc(Cc2cc(C3SC(CO)C(O)CC3O)c(OC)cc2C)cc1 (stereo not shown) [drawing 256] | 766 mg/200 g body weight of the rat |
| CCc1ccc(Cc2cc(C3OC(CO)C(O)CC3O)ccc2C)cc1 (stereo not shown) | 230 mg/200 g body weight of the rat |
| CCc1ccc(Cc2cc(C3OC(CO)C(O)CC3O)ccc2Cl)cc1 (stereo not shown) | 198 mg/200 g body weight of the rat |
| CCOc1ccc(Cc2cc([C@@]34OC[C@@](CO)(C[C@H](O)[C@H]3O)O4)ccc2Cl)cc1 [drawing 251] | 751 mg/200 g body weight of the rat |
| CCc1ccc(Cc2c(Cl)ccc3c2COC32CC(O)CC(CO)O2)cc1 (stereo not shown) [drawing 254] | 677 mg/200 g body weight of the rat |
| C=C1OC(c2ccc(Cl)c(Cc3ccc(OC)cc3)c2)C(O)C(O)C1O (stereo not shown) | 410 mg/200 g body weight of the rat |
| COc1ccc(Cc2cc(C3OC(CO)CC(O)C3O)ccc2Cl)cc1 (stereo not shown) | 310 mg/200 g body weight of the rat |
| CCOc1ccc(Cc2cc(C3OC(CO)C(O)CC3O)ccc2Cl)cc1 (stereo not shown) [drawing 237] | 828 mg/200 g body weight of the rat |
| CCc1ccc(Cc2cc(C3OC(C)C(O)C(O)C3O)ccc2OC)cc1 (stereo not shown) | 439 mg/200 g body weight of the rat |
| CCOc1ccc(Cc2cc(C3SC(CO)C(O)C(O)C3O)c(OC)cc2C)cc1 (stereo not shown) [drawing 211] | 625 mg/200 g body weight of the rat |
| CCc1ccc(Cc2cc(C3CC(O)C(O)C(CO)O3)ccc2Cl)cc1 (stereo not shown) | 412 mg/200 g body weight of the rat |
| CC1OC(c2ccc(Cl)c(Cc3ccc(O[C@H]4CCOC4)cc3)c2)C(O)C(O)C1O (stereo partly shown) [drawing 233] | 748 mg/200 g body weight of the rat |
| CCCCOc1ccc(Cc2cc(C3OC(C)C(O)C(O)C3O)ccc2Cl)cc1 (stereo not shown) | 721 mg/200 g body weight of the rat |
| CC1OC(c2ccc(F)c(Cc3cc4ccccc4s3)c2)CC(O)C1O (stereo not shown) [drawing 253] | 656 mg/200 g body weight of the rat |
| CCc1ccc(Cc2c(Cl)ccc3c2COC32OC(CO)C(O)CC2O)cc1 (stereo not shown) [drawing 246] | 712 mg/200 g body weight of the rat |
| OCC1OC(c2ccc(Cl)c(Cc3ccc(O[C@H]4CCOC4)cc3)c2)C(O)CC1O (stereo partly shown) [drawing 231] | 721 mg/200 g body weight of the rat |
| Cc1ccc(C2OC(C)C(O)CC2O)cc1Cc1ccc(-c2ccc(F)cc2)s1 (stereo not shown) [drawing 261] | 701 mg/200 g body weight of the rat |
| CCOc1ccc(Cc2cc(C3OC(C)C(O)C(O)C3O)ccc2Cl)cc1 (stereo not shown) [drawing 219] | 833 mg/200 g body weight of the rat |
| COc1ccc(Cc2cc(C3OC(C)C(O)C(O)C3O)ccc2Cl)cc1 (stereo not shown) [drawing 213] | 736 mg/200 g body weight of the rat |

| SMILES | Urine glucose excretion (mg/200 g body weight of the rat) |
| --- | --- |
| CCOc1ccc(Cc2cc([C@]34C[C@@H](O)[C@H](O)[C@](CO)(CO3)O4)ccc2Cl)cc1 [drawing 259] | 565 mg/200 g body weight of the rat |
| CCOc1ccc(Cc2cc(C3OC(C)C(O)C(O)C3O)ccc2OC)cc1 (stereo not shown) | 688 mg/200 g body weight of the rat |
| COc1ccc(Cc2cc(C3OC(C)C(O)C(O)C3O)ccc2C(F)(F)F)c(F)c1F (stereo not shown) | 622 mg/200 g body weight of the rat |
| CCc1ccc(Cc2cc(C3OC(C)C(O)C(O)C3O)ccc2C)cc1 (stereo not shown) | 613 mg/200 g body weight of the rat |
| CCOc1ccc(Cc2cc(C3CCC(O)C(CO)S3)c(OC)cc2C)cc1 (stereo not shown) [drawing 263] | 730 mg/200 g body weight of the rat |
| OCC1CCC(O)C(c2ccc(Cl)c(Cc3ccc(O[C@H]4CCOC4)cc3)c2)O1 (stereo partly shown) [drawing 262] | 721 mg/200 g body weight of the rat |
| C=C1OC(c2ccc(Cl)c(Cc3ccc(OCC)cc3)c2)C(O)C(O)C1O (stereo not shown) | 457 mg/200 g body weight of the rat |
| CCc1ccc(Cc2c(Cl)ccc3c2COC32OC(CO)CC(O)C2O)cc1 (stereo not shown) [drawing 245] | 634 mg/200 g body weight of the rat |
| Cc1ccc(C2OC(CO)C(O)CC2O)cc1Cc1ccc(-c2ccc(F)cc2)s1 (stereo not shown) [drawing 239] | 772 mg/200 g body weight of the rat |
| OCC1CC(O)C(O)C(c2ccc(F)c(Cc3cc4ccccc4s3)c2)O1 (stereo not shown) [drawing 241] | 689 mg/200 g body weight of the rat |
| CCOc1ccc(Cc2cc(C3CC(O)C(O)C(CO)O3)ccc2Cl)cc1 (stereo not shown) [drawing 227] | 811 mg/200 g body weight of the rat |
| CCOc1ccc(Cc2cc(C3OC(C)C(O)C(O)C3O)ccc2C)cc1 (stereo not shown) [drawing 216] | 700 mg/200 g body weight of the rat |
| OCC1OC(c2ccc(Cl)c(Cc3ccc(O[C@H]4CCOC4)cc3)c2)CC(O)C1O (stereo partly shown) [drawing 234] | 744 mg/200 g body weight of the rat |
| OCC1OC(c2ccc(F)c(Cc3cc4ccccc4s3)c2)CC(O)C1O (stereo not shown) [drawing 242] | 716 mg/200 g body weight of the rat |
| CCOc1ccc(Cc2cc(C3OC(C)(C)C(O)C(O)C3O)ccc2Cl)cc1 (stereo not shown) | 470 mg/200 g body weight of the rat |
| C#Cc1ccc(Cc2cc(C3OC(C)C(O)C(O)C3O)ccc2Cl)cc1 (stereo not shown) | 671 mg/200 g body weight of the rat |
| CCOc1ccc(Cc2cc(C3SC(CO)C(O)CC3O)c(OC)cc2C)cc1 (stereo not shown) [drawing 257] | 728 mg/200 g body weight of the rat |
| Cc1ccc(C2OC(CO)C(O)C(O)C2O)cc1Cc1ccc(-c2ccc(F)cc2)s1 (stereo not shown) [drawing 196] | 655 mg/200 g body weight of the rat |
| CCCOc1ccc(Cc2cc(C3OC(C)C(O)C(O)C3O)ccc2Cl)cc1 (stereo not shown) [drawing 217] | 712 mg/200 g body weight of the rat |
| CCOc1ccc(Cc2cc(C3OC(OC)C(O)C(O)C3O)ccc2Cl)cc1 (stereo not shown) | 644 mg/200 g body weight of the rat |
| OCC1OC(c2ccc(Cl)c(Cc3ccc(O[C@H]4CCOC4)cc3)c2)C(O)C(O)C1O (stereo partly shown) [drawing 197] | 643 mg/200 g body weight of the rat |
| C#Cc1ccc(Cc2cc(C3OC(CO)CC(O)C3O)ccc2OC)cc1 (stereo not shown) | 328 mg/200 g body weight of the rat |
| CCOc1ccc(Cc2cc([C@]34OC[C@](CO)(O3)[C@@H](O)[C@H](O)[C@H]4O)ccc2Cl)cc1 [drawing 199] | 455 mg/200 g body weight of the rat |

— US9505734B2, “Phenyl C-glucoside derivative containing deoxyglucose structure, preparation method and use thereof” (Tianjin Institute of Pharmaceutical Research, priority 2012, dated 2016)
